Drawing on PubChem BioAssay (NCI), this text covers GI50 and TGI for twelve molecules.

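Compound exposure: 48 hours, 5 concentrations, 96-well plates. GI50 = concentration required for 50% inhibition of growth. TGI marks complete inhibition of growth.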

Common to all, as to experiment: growth of human tumour cells (NCI), 48 h
Experiment [1] has as its system SK-MEL-2 melanoma.
The subject of experiment [2] is HL-60(TB) leukemia.
The subject of experiment [3] is 786-0 renal.
Experiment [4] has as its system U251 CNS.
In experiment [5] the test system is SN12C renal.
Experiment [6] has as its system LOX IMVI melanoma.
In experiment [7] the test system is NCI/ADR-RES ovarian.
Experiment [8] relates to NCI-H522 lung.
For experiment [9], the system named is OVCAR-3 ovarian.
Experiment [10] concerns MDA-MB-231 breast.

On to `Nc1nc(=S)c2ncn(C3OC(COP(=O)(O)O)C(O)C3O)c2[nH]1` (stereo not given), for which the GI50 in experiment [1] was 3.89 µM; in experiment [2] it was 2.37 µM; in experiment [3] it was 2.53 µM; in experiment [4] it was 8.08 µM; in experiment [5], 3.66 µM; in experiment [6] it was 0.322 µM. The GI50 in experiment [7] is 0.491 µM; in experiment [8], 2.11 µM; in [9], 3.2 µM; in [10], 0.717 µM. Moreover, the TGI is > 100 µM in [1]; > 100 µM in [2]; > 100 µM in [3]; > 100 µM in experiment [4]; > 100 µM in [5]; 14.2 µM in experiment [6]. Moreover, the TGI in experiment [7] is > 100 µM; in [8] it was 9.52 µM; in [9] it was > 100 µM; in experiment [10], > 100 µM.
For the molecule `COc1ccccc1Oc1nccc(-c2c(-c3ccc(F)cc3)ncn2C2CCNCC2)n1`, the GI50 in experiment [1] is > 25 µM; in experiment [2] it was > 23.3 µM; in experiment [3] it was > 25 µM; in [4] it was > 24 µM; in [5], > 25 µM; in [6], 17.6 µM. Moreover, the GI50 is > 25 µM in experiment [7], > 25 µM in experiment [8], > 25 µM in experiment [9] and 14.5 µM in experiment [10]. The TGI in experiment [1], in [2], in experiment [3], in experiment [4], in experiment [5] and in [6] was > 25 µM throughout. In addition, the TGI in experiment [7], in [8], in [9] and in experiment [10] was > 25 µM each time.
For the molecule `COCCOC1=C(Cl)C(=O)c2ccccc2C1=O`, the GI50 in experiment [1] was 2.71 µM; in experiment [2], 1.58 µM; in experiment [3], 6.26 µM; in experiment [4] it was 3.14 µM; in experiment [5] it was 3.91 µM; in experiment [6], 1.75 µM. The GI50 in [7] is 2.39 µM; in experiment [8] it was 1.47 µM; in [9], 1.66 µM; in experiment [10], 2.81 µM. Further, the TGI is 9.35 µM in [1]; 4.87 µM in experiment [2]; 18.8 µM in [3]; 10 µM in experiment [4]; 16.5 µM in experiment [5]; 3.31 µM in experiment [6]. Further, the TGI was 6.7 µM in [7], 2.9 µM in [8], 3.06 µM in [9] and 11.7 µM in [10].
In the case of `Fc1ccc(NC(c2ccc(F)cc2)C2CCN(CCCCc3ccccc3)CC2)cc1` (stereo not given), the GI50 in experiment [1] is 1.81 µM; in experiment [2], 1.24 µM; in experiment [3] it was 1.47 µM; in [4], 1.67 µM; in experiment [5], 1.77 µM; in experiment [6], 1.55 µM. Besides, the GI50 is 1.7 µM in experiment [7], 1.65 µM in experiment [8], 1.57 µM in experiment [9] and 1.58 µM in [10]. Also, the TGI in experiment [1] was 3.54 µM; in experiment [2], 3.54 µM; in experiment [3], 2.84 µM; in [4] it was 3.06 µM; in experiment [5], 3.37 µM; in experiment [6] it was 2.89 µM. Moreover, the TGI came to 3.45 µM in experiment [7], 3.47 µM in [8], 2.91 µM in [9] and 3.13 µM in experiment [10].
`COc1ccc(-c2cc(/C=C/C(=O)c3ccc(N)cc3)[nH]n2)cc1OC`: the GI50 was 8.44 µM in experiment [1]; 3.45 µM in experiment [2]; 1.88 µM in [3]; 1.74 µM in experiment [4]; 3.53 µM in [5]; 1.92 µM in experiment [6]. Besides, the GI50 in experiment [7] was 6.21 µM; in experiment [8], 1.65 µM; in experiment [9], 1.92 µM; in experiment [10] it was 4.42 µM. Further, the TGI in experiment [1] was 22.2 µM; in experiment [2] it was > 100 µM; in [3], 4.39 µM; in experiment [4], 3.66 µM; in experiment [5], 13.7 µM; in experiment [6], 3.91 µM. Further, the TGI is > 100 µM in experiment [7], 3.22 µM in experiment [8], 4.19 µM in experiment [9] and 17.2 µM in experiment [10].
Consider `CCCCCC(=O)O[C@]1(C(C)=O)CCC2C3CCC4=CC(=O)CC[C@]4(C)C3CC[C@@]21C` (stereo not given in full), for which the GI50 was 2.87 µM in [1]; 2.25 µM in experiment [2]; 2.71 µM in [3]; 1.78 µM in experiment [4]; 1.6 µM in experiment [5]; 1.67 µM in experiment [6]. Moreover, the GI50 in [7] was 2.11 µM; in experiment [8], 1.88 µM; in experiment [9], 1.9 µM; in [10], 2.49 µM. Besides, the TGI came out at 7.73 µM in experiment [1]; 4.7 µM in experiment [2]; 8.73 µM in experiment [3]; 4.15 µM in [4]; 3.37 µM in experiment [5]; 3.14 µM in [6]. Also, the TGI in experiment [7] amounted to 8.42 µM; in experiment [8], 5.63 µM; in experiment [9], 3.9 µM; in experiment [10], 7.88 µM.
For `CN1CCN(c2c(F)cc(NC3=C(Cl)C(=O)c4ncccc4C3=O)cc2F)CC1`, the GI50 was 13.7 µM in experiment [1]; 1.33 µM in [2]; 1.84 µM in [3]; 15 µM in [4]; 3.22 µM in experiment [5]; 2.15 µM in experiment [6]. Besides, the GI50 was 17.9 µM in experiment [7], 1.43 µM in [8], 0.303 µM in [9] and 3.47 µM in [10]. In addition, the TGI was 28 µM in [1]; 4.99 µM in [2]; 3.44 µM in [3]; 31.7 µM in [4]; 13.2 µM in experiment [5]; 5.17 µM in [6]. Further, the TGI in experiment [7] amounted to 49.3 µM; in experiment [8], 3.82 µM; in [9], 1.37 µM; in experiment [10], 12.3 µM.
As to `CCCCS(=O)c1sc2nc(-c3cccs3)cc(-c3ccccc3)c2c1N` (stereo not given), the GI50 was 17.3 µM in experiment [1]; 14.5 µM in experiment [2]; 8.26 µM in experiment [3]; 18 µM in experiment [4]; 24.9 µM in experiment [5]; 13 µM in experiment [6]. In addition, the GI50 was 6.42 µM in experiment [7], 17.3 µM in experiment [8], 14.3 µM in [9] and 18.2 µM in experiment [10]. Also, the TGI in experiment [1] is 47.8 µM; in [2], > 85.5 µM; in [3], > 100 µM; in experiment [4], > 100 µM; in experiment [5], > 100 µM; in experiment [6] it was > 100 µM. Further, the TGI was > 100 µM in [7], > 87.8 µM in experiment [8], > 100 µM in [9] and > 100 µM in experiment [10].
Take `C=CCN(CC=C)C(=O)c1cc(C)nc2c1c(=O)n(-c1ccccc1)c(=O)n2CCCN1CCN(c2ccccc2OC)CC1`: the GI50 in experiment [1], in experiment [2], in experiment [3], in [4], in experiment [5] and in [6] was > 50 µM throughout. Also, the GI50 in [7], in experiment [8], in experiment [9] and in [10] was > 50 µM throughout. Further, the TGI in experiment [1], in [2], in [3], in experiment [4], in experiment [5] and in [6] was > 50 µM each time. For the same molecule, the TGI in experiment [7], in [8], in experiment [9] and in experiment [10] was > 50 µM each time.
As for `CCOC(=O)/C(=C\c1cccc(C)c1)C(C)=O`, the TGI in experiment [1] was determined as 26.1 µM; in experiment [2], 32.2 µM; in [3] it was 26.4 µM; in experiment [4], 26.2 µM; in experiment [5] it was 41.7 µM; in experiment [6], 26.5 µM. In addition, the TGI in experiment [7] came out at 79.5 µM; in [8], 22.8 µM; in [9], 28.1 µM; in experiment [10], 28.9 µM.
For the molecule `CC(C)Cc1ccc(C(C)/C=C2\CCC(CN(C)C)C2=O)cc1` (stereo not given), the TGI turned out to be 28.6 µM in experiment [1]; 26.7 µM in experiment [2]; 8.13 µM in experiment [3]; 30.4 µM in [4]; 20.5 µM in [5]; 15.6 µM in experiment [6]. The TGI was found to be 24.3 µM in experiment [7], 15.2 µM in experiment [8], 26.5 µM in experiment [9] and 4.52 µM in experiment [10].
Consider `CCN(CC)c1ccc2nc3ccc(=[N+](CC)CC)cc-3oc2c1`, for which the GI50 in experiment [1] is 1.36 µM; in experiment [2], 0.0247 µM; in experiment [3], 1.18 µM; in experiment [4], 0.119 µM; in experiment [5], 0.153 µM; in experiment [6], 0.11 µM. The GI50 is 6.52 µM in experiment [7], 0.0534 µM in experiment [8], 0.0318 µM in [9] and 0.0667 µM in experiment [10]. In addition, the TGI in experiment [1] is 3.99 µM; in experiment [2], 1.2 µM; in [3] it was 2.6 µM; in [4] it was > 100 µM; in experiment [5], 15.2 µM; in [6], 1.59 µM. In addition, the TGI was > 73.3 µM in [7], 0.329 µM in experiment [8], 0.362 µM in experiment [9] and 2.96 µM in [10].
